Data from US20040029910A1, “Protoberberine derivatives which inhibit activity of the mitogen-activated protein kinase” (priority 2000, published 2004).

Assays:
[1] = molecular target: T1, Spc1 kinase (Schizosaccharomyces pombe, UniProt Q09892); test: Spc1 kinase activity, myelin basic protein substrate ([γ-32P]ATP, SDS-PAGE, FIG. 3); format: biochemical; conditions: purified GST-Spc1, myelin basic protein as substrate
T1 construct: The genes wis1 and spc1 were cloned into the pRep1 vector containing nmt1 promoter; made in house; host or cells: Schizosaccharomyces pombe KGY246 (pRep1 vector, nmt1 promoter)
T1 sequence (Q09892 1-349): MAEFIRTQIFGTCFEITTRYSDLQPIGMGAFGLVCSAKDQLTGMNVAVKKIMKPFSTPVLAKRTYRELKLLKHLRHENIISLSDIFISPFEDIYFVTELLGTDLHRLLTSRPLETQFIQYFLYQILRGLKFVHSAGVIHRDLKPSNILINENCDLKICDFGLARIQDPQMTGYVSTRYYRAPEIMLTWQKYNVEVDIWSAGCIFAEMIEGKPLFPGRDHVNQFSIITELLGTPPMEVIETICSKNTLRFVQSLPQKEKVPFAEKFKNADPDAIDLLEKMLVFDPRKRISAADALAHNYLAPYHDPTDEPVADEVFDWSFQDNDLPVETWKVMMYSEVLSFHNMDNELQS
Method: The genes wis1 and spc1 were cloned into the pRep1 vector containing nmt1 promoter of which expression was inhibited by thiamin in the medium and able to tag GST. The KGY246 cells, wild type Schizosaccharomyces pombe cells were transformed with this plasmid. The expression of Wis1 and Spc1 kinase tagged with GST was induced by the cultivation of the transformed cells in MM^AU medium containing 0.4 mM thiamin followed by cultivation to exponential phase(5×10^6 cells) for about 20 hours in 100 mL of MM^AU medium in which thiamin was withdrawn. […]
Before Wis1 and Spc1 kinases purified in example 4 were analyzed, they were pre-incubated in analyzing buffer of kinase (50 mM Tris-Cl pH7.4, 20 mM MgCl2, 5 mM EGTA, 2 mM Na vanadate, 1 mM DTT). […] Therefore, the degree of Wis1 autophosphorylation was also measured.

[2] = molecular target: T2, Wis1 kinase (Schizosaccharomyces pombe, UniProt P33886); test: Wis1 kinase activity and autophosphorylation ([γ-32P]ATP, SDS-PAGE, FIG. 2); format: biochemical; conditions: purified GST-Wis1, kinase reaction 30° C. 30 minutes, autophosphorylation also measured
T2 construct: The genes wis1 and spc1 were cloned into the pRep1 vector containing nmt1 promoter; made in house; host or cells: Schizosaccharomyces pombe KGY246 (pRep1 vector, nmt1 promoter)
T2 sequence (P33886 1-605): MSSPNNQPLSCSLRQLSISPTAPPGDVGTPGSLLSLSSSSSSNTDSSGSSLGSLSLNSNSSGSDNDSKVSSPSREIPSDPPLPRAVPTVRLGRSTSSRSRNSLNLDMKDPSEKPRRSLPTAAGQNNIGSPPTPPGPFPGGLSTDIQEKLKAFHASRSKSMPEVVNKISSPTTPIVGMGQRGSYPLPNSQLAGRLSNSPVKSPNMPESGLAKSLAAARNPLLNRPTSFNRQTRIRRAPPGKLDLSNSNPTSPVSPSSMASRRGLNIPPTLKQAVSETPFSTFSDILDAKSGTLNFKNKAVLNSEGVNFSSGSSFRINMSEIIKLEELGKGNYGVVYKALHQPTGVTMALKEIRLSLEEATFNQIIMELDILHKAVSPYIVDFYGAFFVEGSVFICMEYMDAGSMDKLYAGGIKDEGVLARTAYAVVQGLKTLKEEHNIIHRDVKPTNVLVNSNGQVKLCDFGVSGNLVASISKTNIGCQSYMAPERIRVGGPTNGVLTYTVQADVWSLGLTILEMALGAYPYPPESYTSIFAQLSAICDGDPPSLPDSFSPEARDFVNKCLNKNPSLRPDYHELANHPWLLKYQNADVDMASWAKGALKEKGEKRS
Method: The genes wis1 and spc1 were cloned into the pRep1 vector containing nmt1 promoter of which expression was inhibited by thiamin in the medium and able to tag GST. The KGY246 cells, wild type Schizosaccharomyces pombe cells were transformed with this plasmid. The expression of Wis1 and Spc1 kinase tagged with GST was induced by the cultivation of the transformed cells in MM^AU medium containing 0.4 mM thiamin followed by cultivation to exponential phase(5×10^6 cells) for about 20 hours in 100 mL of MM^AU medium in which thiamin was withdrawn. After osmotic shock(0.6M KCl) and oxidative stress were given to the cells expressing Wis1 and Spc1 tagged with GST for 25 minutes, cells were recovered at 4° C., washed with ice-cold PBS/NaF(50 mM)/NaN3(1 mM) buffer and HB buffer(25 mM HEPES, pH 7.5, 60 mM β-glycerophosphate, 15 mM EGTA, 0.1 mM Na vanadate, 0.1% triton and hydrolyzed using glass bead and bead beater purchased from Sigma. The supernatant of hydrolyzed cells was incubated with 100 mM NaCl for salting-out to remove unnecessary proteins. After the supernatant was incubated with 0.045 g/ml GST beads for 1.5 hours, proteins not bound to GST beads were removed. Purified Wis1 and Spc1 kinases were separated on 7% SDS-PAGE and the degree of purification was confirmed by western blotting using GST antibody.
Before Wis1 and Spc1 kinases purified in example 4 were analyzed, they were pre-incubated in analyzing buffer of kinase (50 mM Tris-Cl pH7.4, 20 mM MgCl2, 5 mM EGTA, 2 mM Na vanadate, 1 mM DTT). The kinase reaction was performed at 30° C. for 30 minutes in the presence of 1 mg/ml myelin basic protein(MBP), 1 mM ATP and 20 uCi of [γ-^32p]ATP and then terminated by adding SDS sample buffer and heating at 90° C. for 5 minutes. The reaction mixtures were separated on SDS-polyacrylamide gel electrophoresis. After fixation with 10% acetic acid: 10% methanol and drying, the gel was exposed on X-ray film. When Wis1 is activated by stimulus, it also activates autophosphorylation. Therefore, the degree of Wis1 autophosphorylation was also measured.

[3] = system: KGY246 (wild type); test: Growth (cell number) of wild type strain KGY246; format: cell-based, Schizosaccharomyces pombe
Method: To investigate the effect of protoberberine derivatives on the growth of cells, the cells of each strain were cultured in rich medium YE^AU to exponential phase(5×10^7 cells/mL). These cells were transferred to YE^AU medium and cultured for 12 hours. Then cell number was measured every 3 hours.

Row | SMILES | inhibition of Spc1 kinase activity (in words) [1] | inhibition of Wis1 kinase activity (in words) [2] | cell number ([3]; Table 2, KGY246, time 14) | cell number ([3]; Table 2, KGY246, time 17) | cell number ([3]; Table 2, KGY246, time 20) | cell number ([3]; Table 2, KGY246, time 23)
1 | CCCOc1cc2c(cc1OCCC)-c1cc3ccc(OCCC)c(OCCC)c3c[n+]1CC2.[I-] [2,3,9,10-tetrapropoxyprotoberberine iodide] | directly inhibited | – | – | – | – | –
2 | COc1ccc2c(Cc3ccc(O[Si](C)(C)C(C)(C)C)cc3)c3[n+](cc2c1OC)CCc1cc2c(cc1-3)OCO2.[Cl-] [13-(4-(t-butyldimethylsilyloxy)benzyl)berberine chloride] | – | directly inhibited | 20 | 19 | 22 | 16
3 | COc1ccc2c(Cc3ccc(C(C)(C)C)cc3)c3[n+](cc2c1OC)CCc1cc2c(cc1-3)OCO2.[Cl-] [13-(4-t-butylbenzyl)berberine chloride] | – | directly inhibited | – | – | – | –
